In PMC8715118, “Assessing potentiation of the (α4)3(β2)2 nicotinic acetylcholine receptor by the allosteric agonist CMPI” (The Journal of Biological Chemistry, 2021):
Several values for one entry are separate records, joined by “and”; a condition that tells them apart may be missing. Identical values can stand only once. Like-named read-outs stand apart in the source and are kept apart here. One block for each compound: values may come before it.

Assays:
Type in all cases: cell-based
[1] = molecular target: T1, (α4)3(β2)2 nAChR (Homo sapiens, UniProt P17787+P43681); experiment: Mechanistic (Monod-Wyman-Changeux two-state model) analysis of current responses, WT (α4)3(β2)2 nAChR; conditions: for peak PA: calculated with Equation 2
T1 construct: expressed in transfected cells; host or cells: Xenopus laevis oocytes injected with cRNA, 8:1 α4:β2
Source text: To gain mechanistic insight into receptor activation in the presence of CMPI, we analyzed the currents in the framework of a cyclic two-state (resting and active) allosteric activation model ([31], [32], [33]). In this model, channel opening is mediated by stabilization of the active state by an agonist that, by definition, has higher affinity to the active than resting state.
We commenced by converting the raw amplitudes of current responses to units of probability of being in the active state (PA units).
(§1) Further analysis of electrophysiological data was conducted in the framework of the two-state concerted transition model, adapted from the MWC cyclic model originally used to describe enzyme function ([31], [32], [33]). The raw peak amplitudes of current responses were converted to units of probability of being in the active state (PA).
(§2) The numbers of α4:β2 and α4:α4 binding sites (Nα4:β2 and Nα4:α4) were constrained to 2 and 1, respectively.
(§3) The concentration-response curve for TC-2559 was fitted to the following equation:(3) PA=1/1+L[1+[TC-2559]/KR,TC-2559,α4:β2/1+[TC-2559]/(KR,TC-2559,α4:β2cTC-2559,α4:β2)]^Nα4:β2
(§4) The concentration-response data were analyzed using Equation 3, with the value of L modified to reflect receptor activation by TC-2559, and the affinity and efficacy terms in the equation reflecting the values for CMPI. The number of binding sites for CMPI in Equation 3 was constrained to 1.
(§5) Curve fitting was done using Origin 2020 (OriginLab Corp). The results are reported as best-fit parameter ±SD of the fit. All data are included in the analysis.

[2] = molecular target: T2, (α4E66I)3(β2)2 nAChR (Homo sapiens, UniProt P17787+P43681, E92I); experiment: Two-electrode voltage-clamp, oocytes expressing (α4E66I)3(β2)2 nAChR
T2 construct: expressed in transfected cells; host or cells: Xenopus laevis oocytes injected with cRNA, 8:1 α4:β2
Experimental: (§6) Oocytes-positive female Xenopus laevis were purchased from NASCO, and all procedures were performed according to an animal use protocol approved by the Institutional Animals Care and Use Committee of The University of Texas Health Science Center at Tyler. Ovarian lobules were surgically harvested, treated with collagenase type 2, and Stage V and VI oocytes were visually selected and maintained at 18 °C in modified ND96-gentamicin buffer (96 mM NaCl, 2 mM KCl, 1.8 mM CaCl2, 1 mM MgCl2, 5 mM Hepes, and 50 μg/ml gentamicin, pH 7.6).
(§7) pSP64 Poly(A) plasmids with cDNA encoding for human α4 or β2 nAChR subunit were used to prepare cRNA transcripts suitable for oocyte expression. The plasmids were linearized with AseI (hα4) and PvuII (hβ2), then cRNA transcripts were prepared in vitro using mMESSAGE mMACHINE high yield-capped RNA transcription kits (Ambion, Thermo Fisher Scientific), purified on NucAway Spin column (Invitrogen, Thermo Fisher Scientific), and stored at −80 °C until used. Point mutations within the plasmid encoding the α4 nAChR subunit were introduced using QuikChange II Site-Directed Mutagenesis Kit (Agilent Technologies), as described previously ([28]). To generate amino acid substitutions (K64T, E66I, H116V, H116L, and H116A), two custom-designed complementary oligos containing the desired mutation were used (Integrated DNA Technologies). The forward primers were as the following with the codon for mutated amino acids are underlined and nucleotide(s) changes are bolded and italicized:
(§8) The oocytes were injected with 10 to 50 ng of a cRNA mix containing α4 (WT or mutant) and β2 RNAs at ratios of 8:1(α4:β) or 1:8 (α4:β2) to bias expression toward (α4)3(β2)2 or (α4)2(β2)3 nAChRs, respectively. The injection of oocytes with RNAs mixture containing four folds or higher α4 RNA than β2 RNA have been established to express receptor population that is made up of three α4 and two β2 subunits ([9], [12], [28], [43], [44], [45]).
(§9) 24 to 72 h after cRNA injection, Xenopus oocytes were placed in a custom-made recording chamber that is connected to an eight-channel automated perfusion system (Warner Instruments) and perfused with recording buffer (100 mM NaCl, 2 mM KCl, 1 mM CaCl2, 0.8 mM MgCl2, 1 mM EGTA, and 10 mM Hepes, pH 7.5). Unless otherwise specified in figure legends, each recording run included several drug applications (10 s of an agonist with or without CMPI or NS9283) separated by 3 to 4 min buffer wash intervals. Between recording runs, the oocytes were washed with recording buffer for at last 5 min. […] The currents were digitized using Digidata 1550A (Axon Instruments, Molecular Devices), and the peak currents were quantified using pCLAMP 10 (Axon Instruments), then normalized and analyzed using Excel 2010 (Microsoft) and SigmaPlot 11.0 (Systat Software). […]

[3] = molecular target: T3, (α4H116V)3(β2)2 nAChR (Homo sapiens, UniProt P17787+P43681, H142V); experiment: Two-electrode voltage-clamp, oocytes expressing (α4H116V)3(β2)2 nAChR
T3 construct: expressed in transfected cells; host or cells: Xenopus laevis oocytes injected with cRNA, 8:1 α4:β2
Experimental: as §6, §7, §8, §9

[4] = molecular target: T4, (α4H116L)3(β2)2 nAChR (Homo sapiens, UniProt P17787+P43681, H142L); experiment: Two-electrode voltage-clamp, oocytes expressing (α4H116L)3(β2)2 nAChR
T4 construct: expressed in transfected cells; host or cells: Xenopus laevis oocytes injected with cRNA, 8:1 α4:β2
Experimental: as §6, §7, §8, §9

[5] = molecular target: T1, (α4)3(β2)2 nAChR; experiment: Two-electrode voltage-clamp whole-cell currents, Xenopus oocytes expressing WT (α4)3(β2)2 nAChR
Experimental: as §6, §7, §8
(§10) 24 to 72 h after cRNA injection, Xenopus oocytes were placed in a custom-made recording chamber that is connected to an eight-channel automated perfusion system (Warner Instruments) and perfused with recording buffer (100 mM NaCl, 2 mM KCl, 1 mM CaCl2, 0.8 mM MgCl2, 1 mM EGTA, and 10 mM Hepes, pH 7.5). Unless otherwise specified in figure legends, each recording run included several drug applications (10 s of an agonist with or without CMPI or NS9283) separated by 3 to 4 min buffer wash intervals. Between recording runs, the oocytes were washed with recording buffer for at last 5 min. The oocytes were voltage-clamped at −50 mV using Oocyte Clamp OC-725B (Warner Instruments). The currents were digitized using Digidata 1550A (Axon Instruments, Molecular Devices), and the peak currents were quantified using pCLAMP 10 (Axon Instruments), then normalized and analyzed using Excel 2010 (Microsoft) and SigmaPlot 11.0 (Systat Software). For NS9283 and CMPI potentiation of agonist-induced responses, the peak currents were normalized to current elicited by agonist alone applied within the same recording run. For the effect of coapplication of 1 μM NS9283 or CMPI on agonist concentration-response curve, the peak currents were normalized to current elicited by saturating concentration of agonist applied within the same recording run. […] I0 = 100 for NS9283 and CMPI potentiation of agonist-induced responses and I0 = 0 for agonist concentration-response experiments. The best-fit values for Imax and EC50 ± SD are presented.

[6] = molecular target: T5, (α4H116A)3(β2)2 nAChR (Homo sapiens, UniProt P17787+P43681, H142A); experiment: Two-electrode voltage-clamp, oocytes expressing (α4H116A)3(β2)2 nAChR
T5 construct: expressed in transfected cells; host or cells: Xenopus laevis oocytes injected with cRNA, 8:1 α4:β2
Experimental: as §6, §7, §8, §10

[7] = molecular target: T6, (α4K64T)3(β2)2 nAChR (Homo sapiens, UniProt P17787+P43681, K90T); experiment: Two-electrode voltage-clamp, oocytes expressing (α4K64T)3(β2)2 nAChR
T6 construct: expressed in transfected cells; host or cells: Xenopus laevis oocytes injected with cRNA, 8:1 α4:β2
Experimental: as §6, §7, §8, §9

[8] = molecular target: T5, (α4H116A)3(β2)2 nAChR; experiment: Mechanistic (Monod-Wyman-Changeux two-state model) analysis of current responses, (α4H116A)3(β2)2 nAChR; conditions: α4H116A mutant; for Kd: read-out: KR, equilibrium dissociation constant in the resting receptor
Experimental: as §1, §2, §3, §4, §5

[9] = molecular target: T7, (α4)2(β2)3 nAChR (Homo sapiens, UniProt P17787+P43681); experiment: Two-electrode voltage-clamp whole-cell currents, Xenopus oocytes expressing (α4)2(β2)3 nAChR
T7 construct: expressed in transfected cells; host or cells: Xenopus laevis oocytes injected with cRNA, 1:8 α4:β2
Experimental: as §6
pSP64 Poly(A) plasmids with cDNA encoding for human α4 or β2 nAChR subunit were used to prepare cRNA transcripts suitable for oocyte expression. The plasmids were linearized with AseI (hα4) and PvuII (hβ2), then cRNA transcripts were prepared in vitro using mMESSAGE mMACHINE high yield-capped RNA transcription kits (Ambion, Thermo Fisher Scientific), purified on NucAway Spin column (Invitrogen, Thermo Fisher Scientific), and stored at −80 °C until used. […]
Two-electrode voltage-clamp recordings of ACh- or TC-2559 induced responses of Xenopus oocytes were performed, as described in ([28]). […] The currents were digitized using Digidata 1550A (Axon Instruments, Molecular Devices), and the peak currents were quantified using pCLAMP 10 (Axon Instruments), then normalized and analyzed using Excel 2010 (Microsoft) and SigmaPlot 11.0 (Systat Software). […]

T1 sequence (P43681 27-627): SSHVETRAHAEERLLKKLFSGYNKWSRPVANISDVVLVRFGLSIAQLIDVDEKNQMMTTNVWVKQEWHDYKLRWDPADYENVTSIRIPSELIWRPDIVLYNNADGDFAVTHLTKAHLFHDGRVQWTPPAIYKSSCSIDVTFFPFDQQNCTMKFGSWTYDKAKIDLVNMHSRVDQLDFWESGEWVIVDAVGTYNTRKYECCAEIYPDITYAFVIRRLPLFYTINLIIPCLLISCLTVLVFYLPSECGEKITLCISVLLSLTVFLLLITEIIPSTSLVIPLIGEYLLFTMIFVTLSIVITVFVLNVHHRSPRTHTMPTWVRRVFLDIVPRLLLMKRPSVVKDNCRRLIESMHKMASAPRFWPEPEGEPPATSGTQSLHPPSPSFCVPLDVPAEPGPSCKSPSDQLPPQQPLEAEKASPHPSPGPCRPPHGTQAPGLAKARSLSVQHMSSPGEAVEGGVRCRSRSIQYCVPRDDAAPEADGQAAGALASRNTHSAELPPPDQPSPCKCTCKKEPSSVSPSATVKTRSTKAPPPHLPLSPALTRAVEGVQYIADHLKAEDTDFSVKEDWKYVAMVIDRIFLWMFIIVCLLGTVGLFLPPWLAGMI
T1 sequence (P17787 26-502): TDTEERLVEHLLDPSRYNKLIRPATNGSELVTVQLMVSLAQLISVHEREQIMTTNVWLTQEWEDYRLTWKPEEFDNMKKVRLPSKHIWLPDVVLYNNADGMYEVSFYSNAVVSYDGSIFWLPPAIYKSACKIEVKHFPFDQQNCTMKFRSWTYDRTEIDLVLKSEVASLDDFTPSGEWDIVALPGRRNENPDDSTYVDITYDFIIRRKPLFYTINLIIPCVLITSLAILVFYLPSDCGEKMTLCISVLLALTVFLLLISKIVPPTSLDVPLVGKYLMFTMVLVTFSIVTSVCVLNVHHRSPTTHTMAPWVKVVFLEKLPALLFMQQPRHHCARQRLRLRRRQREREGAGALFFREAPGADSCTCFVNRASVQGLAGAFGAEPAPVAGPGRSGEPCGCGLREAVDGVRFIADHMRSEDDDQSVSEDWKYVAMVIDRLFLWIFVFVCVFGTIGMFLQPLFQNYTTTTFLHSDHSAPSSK
T5 sequence (P43681 27-627 H142A): as the sequence (P43681 27-627) above, with H116A counted along it
T5 sequence (P17787 26-502): as the sequence (P17787 26-502) above
T7 sequence (P43681 27-627): as the sequence (P43681 27-627) above
T7 sequence (P17787 26-502): as the sequence (P17787 26-502) above
T2 sequence (P43681 27-627 E92I): as the sequence (P43681 27-627) above, with E66I counted along it
T2 sequence (P17787 26-502): as the sequence (P17787 26-502) above
T3 sequence (P43681 27-627 H142V): as the sequence (P43681 27-627) above, with H116V counted along it
T3 sequence (P17787 26-502): as the sequence (P17787 26-502) above
T4 sequence (P43681 27-627 H142L): as the sequence (P43681 27-627) above, with H116L counted along it
T4 sequence (P17787 26-502): as the sequence (P17787 26-502) above
T6 sequence (P43681 27-627 K90T): as the sequence (P43681 27-627) above, with K64T counted along it
T6 sequence (P17787 26-502): as the sequence (P17787 26-502) above

SMILES: CC(=O)OCC[N+](C)(C)C [ACh, Acetylcholine chloride]
PA,1 mM ACh (peak probability of being in the active state) ([1]; 1 mM ACh, normalized to 1 mM ACh + 3 μM dFBr): 0.36 ± 0.05 and 0.36
free energy change toward stabilization of the active state (ΔGgating) ([1]; binding to the single α4:α4 site): -5.31 kJ/mol
free energy change toward stabilization of the active state (ΔGgating,total) ([1]; binding to the two α4:β2 sites): -7.07 kJ/mol
peak PA ([1]; occupation of the two α4:β2 sites and the single α4:α4 site with ACh): 0.36
peak PA ([1]; occupation of the two α4:β2 sites with ACh): 0.072
ΔGgating per site ([1]; per α4:β2 site): -3.51 kJ/mol

potentiation fold (Ave ± SD), agonist + 1 μM modulator / agonist alone ([2]; ACh (1 mM)): 0.95 ± 0.07
potentiation fold (Ave ± SD), agonist + 1 μM modulator / agonist alone ([2]; TC 2559 (30 μM)): 2.68 ± 1.08
potentiation fold (Ave ± SD), agonist + 1 μM modulator / agonist alone ([3]; ACh (1 mM)): 0.90 ± 0.02
potentiation fold (Ave ± SD), agonist + 1 μM modulator / agonist alone ([3]; TC 2559 (30 μM)): 0.87 ± 0.06
potentiation fold (Ave ± SD), agonist + 1 μM modulator / agonist alone ([4]; ACh (1 mM)): 0.95 ± 0.03
potentiation fold (Ave ± SD), agonist + 1 μM modulator / agonist alone ([4]; TC 2559 (30 μM)): 1.18 ± 0.17
maximal potentiation ([5]; 1 μM TC-2559): 1800 ± 307%
effect on responses to agonists at subsaturating concentrations ([5]; 1 μM modulator, ACh, nicotine, cytisine, TC-2559, p < 0.001): potentiated
effect on responses to saturating concentrations of the tested agonists ([5]; 1 μM modulator, except for TC-2559): did not potentiate
maximal potentiation ([5]; 10 μM TC-2559): 1522 ± 41%
potentiation fold (Ave ± SD), agonist + 1 μM modulator / agonist alone ([5]; ACh (1 mM), 1 μM modulator): 1.00 ± 0.04
potentiation fold (Ave ± SD), agonist + 1 μM modulator / agonist alone ([5]; TC 2559 (30 μM), 1 μM modulator): 5.05 and 5.05 ± 1.66
EC50 ([5]; responses induced by 1 μM TC-2559, read-out: potentiation EC50): 1.9 ± 0.2 µM
EC50 ([5]; responses induced by 10 μM TC-2559, read-out: potentiation EC50): 1.8 ± 0.12 µM
potentiation fold (Ave ± SD), agonist + 1 μM modulator / agonist alone ([6]; ACh (1 mM)): 0.98 ± 0.03
potentiation fold (Ave ± SD), agonist + 1 μM modulator / agonist alone ([6]; TC 2559 (30 μM)): 0.93 ± 0.12
potentiation fold (Ave ± SD), agonist + 1 μM modulator / agonist alone ([7]; ACh (1 mM)): 1.10 ± 0.08
potentiation fold (Ave ± SD), agonist + 1 μM modulator / agonist alone ([7]; TC 2559 (30 μM)): 4.72 ± 2.27
SMILES: N#Cc1cccc(-c2nc(-c3cccnc3)no2)c1 [NS9283, 3-[3-(3-pyridinyl)-1,2,4-oxadiazol-5-yl]benzonitrile]

SMILES: CCOc1cncc(/C=C/CCNC)c1 [TC-2559]
c, ratio of equilibrium dissociation constants active/resting receptor ([1]; α4:β2 site, WT): 0.371 ± 0.006
Kd ([1]; α4:β2 site, WT, read-out: KR, equilibrium dissociation constant in the resting receptor): 0.33 ± 0.05 µM
c, ratio of equilibrium dissociation constants active/resting receptor ([8]; α4:α4 site): 0.046 ± 0.003
Kd ([8]; α4:α4 site): 70 ± 3 µM
c, ratio of equilibrium dissociation constants active/resting receptor ([8]; α4:β2 site): 0.337 ± 0.013
Kd ([8]; α4:β2 site): 0.21 ± 0.05 µM
I30 μM TC-2559, % of current induced by 1 mM ACh ([9]; 30 μM TC-2559): 152 ± 21%
EC50 ([9]; agonist alone): 0.54 ± 0.02 µM
I30 μM TC-2559, % of current induced by 1 mM ACh ([5]; 30 μM TC-2559): 11 ± 2%
Emax, % of current induced by 1 mM ACh ([5]; WT): ~10%
EC50 ([5]; agonist alone, read-out: agonist EC50): 0.34 ± 0.04 µM
Emax, % of current induced by 1 mM ACh [6]: 182 ± 5%
Emax ([6]; absence of CMPI, normalized to 100 μM TC-2559): 115 ± 14%
EC50 ([6]; absence of CMPI, read-out: EC50 of TC-2559): 22 ± 7 µM
